In US11452781B2, “Method of preventing and treating type 1 diabetes, allograft rejection and lung fibrosis (by targeting the ATP/P2X7R axis)” (CHILDREN'S MEDICAL CENTER CORPORATION, priority 2013, dated 2022):

Tested on: C57BL/6 splenocytes
Assay: In vitro alloimmune ELISPOT, C57BL/6 responder splenocytes vs irradiated BALB/c splenocytes
Format: cell-based, mouse
Text: The effect of increasing doses of oATP on Th1/Th17 cytokine levels was next tested. A dose-dependent response was evident, in which oATP reduced the number of cells producing Th1 cytokines (IFN-γ and IL-2) and Th17 cytokines (IL-6 and IL-17). Because it has been reported that oATP may affect other P2XRs, the inventors made use of the availability of the selective P2X1R inhibitor NF 449 and of the selective P2X3R inhibitor NF 110. C57BL/6 splenocytes were stimulated with irradiated BALB/c splenocytes, and IFN-γ production was evaluated in the presence of these inhibitors.

With periodate-oxidized ATP [oATP] the IL-4 production (increasing concentrations of oATP) was “dose-dependent increase” and the “number of cells producing Th1 (IFN-γ, IL-2) and Th17 (IL-6, IL-17) cytokines” value (increasing doses, dose-dependent) was “reduced”.
